The assay concerns CD2F1 mice, L1210 leukemia ip, survival T/C. Description: NCI In Vivo Anticancer Drug Screen. Data for tumor model L1210 Leukemia (intraperitoneal) in CD2F1 (CDF1) mice. As to conditions: higher = longer survival. The gist of the method:
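Implant tumor; dose compound or vehicle; measure endpoint in both groups; report treated divided by control.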

[1] abbreviates: endpoint: mean survival time, dose: 100.0 mg/kg/injection, schedule: Q04DX003 (ip), vehicle: saline with Tween-80.
The mark [2] stands for this setting: endpoint: mean survival time, dose: 200.0 mg/kg/injection, schedule: Q04DX003 (ip), vehicle: saline with Tween-80.
The mark [3] stands for this setting: endpoint: mean survival time, dose: 50.0 mg/kg/injection, schedule: Q01DX009 (ip), vehicle: saline with Tween-80.
Setting [4] is: endpoint: mean survival time, dose: 100.0 mg/kg/injection, schedule: Q04DX003 (ip), vehicle: saline.
Setting [5] is: endpoint: mean survival time, dose: 200.0 mg/kg/injection, schedule: Q04DX003 (ip), vehicle: saline.
Where [6] appears, read: endpoint: mean survival time, dose: 12.5 mg/kg/injection, schedule: Q01DX009 (ip), vehicle: saline with Tween-80.
Setting [7] is: endpoint: mean survival time, dose: 25.0 mg/kg/injection, schedule: Q01DX009 (ip), vehicle: saline with Tween-80.
The mark [8] stands for this setting: endpoint: mean survival time, dose: 100.0 mg/kg/injection, schedule: Q01DX001 (ip), vehicle: saline with Tween-80.
Where [9] appears, read: endpoint: mean survival time, dose: 200.0 mg/kg/injection, schedule: Q01DX001 (ip), vehicle: saline with Tween-80.
[10] abbreviates: endpoint: mean survival time, dose: 400.0 mg/kg/injection, schedule: Q01DX001 (ip), vehicle: saline with Tween-80.
Where [11] appears, read: endpoint: mean survival time, dose: 100.0 mg/kg/injection, schedule: Q01DX009 (ip), vehicle: saline with Tween-80.
Where [12] appears, read: endpoint: mean survival time, dose: 200.0 mg/kg/injection, schedule: Q01DX009 (ip), vehicle: saline with Tween-80.
Where [13] appears, read: endpoint: mean survival time, dose: 400.0 mg/kg/injection, schedule: Q04DX003 (ip), vehicle: saline with Tween-80.

Several values for one entry are separate records, joined by “and”; a condition that tells them apart may be missing. Equal values may be shown once. Toxic doses and inconclusive results are not listed.

As to `COC(C)(C)O/N=C(\C[n+]1ccccc1)c1ccccc1`, the T/C is, setting by setting: (endpoint: mean survival time, dose: 12.5 mg/kg/injection, schedule: Q01DX009 (ip), vehicle: water) 95 % of control; (endpoint: mean survival time, dose: 25.0 mg/kg/injection, schedule: Q01DX009 (ip), vehicle: water) 91 % of control; (endpoint: mean survival time, dose: 50.0 mg/kg/injection, schedule: Q01DX009 (ip), vehicle: water) 90 % of control.

Regarding `CCCCN(CCCC)CC(C)(O)c1cc(-c2ccc(Cl)cc2)nc2c(C)cc(C)cc12` (configuration not stated), the T/C reads like this: under setting [1], 87 % of control; under setting [2], 89 % of control.

As for `O=NN(CCCl)C(=O)Nc1cc(NC(=O)N(CCCl)N=O)cc(C(=O)O)c1`, the T/C (endpoint: mean survival time, dose: 10.0 mg/kg/injection, schedule: Q04DX003 (ip), vehicle: saline with Tween-80) was 186 % of control and the T/C (endpoint: mean survival time, dose: 20.0 mg/kg/injection, schedule: Q04DX003 (ip), vehicle: saline with Tween-80) was 212 % of control.

As to `O=C1C=C(N2CC2)C(=O)C=C1N1CC1`, the T/C is 120 % of control and 103 % of control (endpoint: mean survival time, dose: 0.12 mg/kg/injection, schedule: Q01DX Z (ip), vehicle: saline); 119 % of control (endpoint: mean survival time, dose: 0.25 mg/kg/injection, schedule: Q01DX Z (ip), vehicle: saline); 120 % of control (endpoint: mean survival time, dose: 0.5 mg/kg/injection, schedule: Q01DX Z (ip), vehicle: saline); 91 % of control (endpoint: mean survival time, dose: 1.0 mg/kg/injection, schedule: Q01DX Z (ip), vehicle: saline).

For `CS(=O)(=O)Nc1ccc(Nc2c3ccccc3nc3cc(Cl)ccc23)cc1`, the T/C under setting [3] is 186 % of control; the T/C under setting [4] is 160 % of control; the T/C (endpoint: mean survival time, dose: 133.0 mg/kg/injection, schedule: Q04DX003 (ip), vehicle: saline with Tween-80) was 114 % of control; the T/C under setting [5] is 225 % of control.

Take `COC(=O)[C@@]12OC[C@]34[C@H]([C@@H](O)[C@@H]1O)[C@@]1(C)CC(=O)C(O)=C(C)[C@@H]1C[C@H]3OC(=O)[C@H](OC(=O)/C=C(\C)C(C)C)[C@@H]24`: the T/C (endpoint: mean survival time, dose: 125.0 micrograms/kg/injection, schedule: Q01DX009 (ip), vehicle: saline + alcohol) was 120 % of control; the T/C (endpoint: mean survival time, dose: 250.0 micrograms/kg/injection, schedule: Q01DX009 (ip), vehicle: saline + alcohol) is 106 % of control; the T/C (endpoint: mean survival time, dose: 500.0 micrograms/kg/injection, schedule: Q01DX009 (ip), vehicle: saline + alcohol) is 112 % of control; the T/C (endpoint: mean survival time, dose: 1000.0 micrograms/kg/injection, schedule: Q01DX009 (ip), vehicle: saline + alcohol) is 120 % of control; the T/C (endpoint: median survival time, dose: 0.25 mg/kg/injection, schedule: Q01DX009 (ip), vehicle: saline + alcohol) is 120 % of control and 122 % of control; the T/C (endpoint: median survival time, dose: 0.5 mg/kg/injection, schedule: Q01DX009 (ip), vehicle: saline + alcohol) was 120 % of control.

On to `O=c1oc2ccccc2c2ccccc12`, for which the T/C was 108 % of control (endpoint: mean survival time, dose: 100.0 mg/kg/injection, schedule: Q04DX002 (ip), vehicle: saline with Tween-80); 101 % of control (endpoint: mean survival time, dose: 200.0 mg/kg/injection, schedule: Q04DX002 (ip), vehicle: saline with Tween-80); 101 % of control (endpoint: mean survival time, dose: 400.0 mg/kg/injection, schedule: Q04DX002 (ip), vehicle: saline with Tween-80).

As for `Cc1ccc2c(ccc(/C=C/c3ccc(O)c4ncccc34)[n+]2C)c1`, the T/C under setting [6] was 117 % of control; the T/C under setting [7] was 122 % of control; the T/C under setting [3] is 105 % of control; the T/C (endpoint: mean survival time, dose: 66.0 mg/kg/injection, schedule: Q04DX003 (ip), vehicle: saline with Tween-80) is 119 % of control; the T/C under setting [1] is 119 % of control; the T/C (endpoint: mean survival time, dose: 150.0 mg/kg/injection, schedule: Q04DX003 (ip), vehicle: saline with Tween-80) was 119 % of control.

Take `Cc1c2c(cc3c1CCC1(C)C3CCC1C(C)/C=C/C(C)C(C)C)CCC=C2` (configuration not stated): the T/C reads like this: under setting [8], 95 % of control; under setting [9], 90 % of control; under setting [10], 86 % of control.

Consider `O=C(CC(=Nc1ccccc1)c1ccccc1)c1ccccc1.O=C(CC(=Nc1ccccc1)c1ccccc1)c1ccccc1.[Cu]`, for which the T/C was 98 % of control under setting [6] and 93 % of control under setting [7].

As for `CC(C)=CC(=O)OC1C2C(C)=CC(=O)C(O)C2(C)C2C3(O)OCC24C(CC(=O)OC14)C(C)C3O` (configuration not stated), the T/C (endpoint: mean survival time, dose: 0.25 mg/kg/injection, schedule: Q01DX009 (ip), vehicle: distilled water + Tween-80) is 110 % of control; the T/C (endpoint: mean survival time, dose: 0.5 mg/kg/injection, schedule: Q01DX009 (ip), vehicle: distilled water + Tween-80) is 124 % of control; the T/C (endpoint: mean survival time, dose: 1.0 mg/kg/injection, schedule: Q01DX009 (ip), vehicle: distilled water + Tween-80) was 112 % of control; the T/C (endpoint: mean survival time, dose: 2.0 mg/kg/injection, schedule: Q01DX009 (ip), vehicle: saline with Tween-80) is 151 % of control; the T/C (endpoint: median survival time, dose: 0.25 mg/kg/injection, schedule: Q01DX009 (ip), vehicle: distilled water + Tween-80 + alcohol) was 122 % of control; the T/C (endpoint: median survival time, dose: 0.5 mg/kg/injection, schedule: Q01DX009 (ip), vehicle: distilled water + Tween-80 + alcohol) is 124 % of control. Besides, where the note is “endpoint: median survival time, dose: 2.0 mg/kg/injection, schedule: Q01DX009 (ip), vehicle: distilled water + Tween-80 + alcohol”, the T/C was 153 % of control.

Consider `C1CCC(C2CCCC[N-]2)[N-]C1.[Cl][Pt].[NH-]C(CC(N)=O)C(=O)O` (configuration not stated), for which the T/C was 101 % of control (endpoint: median survival time, dose: 10.0 mg/kg/injection, schedule: Q04DX003 (ip), vehicle: saline); 93 % of control (endpoint: median survival time, dose: 20.0 mg/kg/injection, schedule: Q04DX003 (ip), vehicle: saline); 98 % of control (endpoint: median survival time, dose: 40.0 mg/kg/injection, schedule: Q04DX003 (ip), vehicle: saline); 91 % of control and 104 % of control (endpoint: median survival time, dose: 80.0 mg/kg/injection, schedule: Q04DX003 (ip), vehicle: saline); 95 % of control (endpoint: median survival time, dose: 160.0 mg/kg/injection, schedule: Q04DX003 (ip), vehicle: saline); 86 % of control (endpoint: median survival time, dose: 320.0 mg/kg/injection, schedule: Q04DX003 (ip), vehicle: saline).

`O=NN(c1ccccc1)c1ccc([N+](=O)[O-])cc1`: the T/C under setting [11] is 95 % of control; the T/C under setting [1] is 92 % of control; the T/C under setting [12] is 90 % of control; the T/C under setting [2] was 97 % of control; the T/C under setting [13] is 98 % of control.

Regarding `Cc1ccc(S(=O)(=O)OCC(O)C(O)C(O)C(C)O)cc1` (configuration not stated), the T/C under setting [8] is 98 % of control, the T/C under setting [9] was 98 % of control and the T/C under setting [10] was 102 % of control.

With `CCCCCCCCCCCCCCCC(=O)NCCOC(C)=O`, the T/C by setting is: under setting [3], 89 % of control; under setting [11], 92 % of control; under setting [1], 92 % of control; under setting [12], 93 % of control; under setting [2], 95 % of control; under setting [13], 97 % of control.

In the case of `CC(=O)Oc1ccccc1O`, the T/C is 96 % of control and 103 % of control (endpoint: median survival time, dose: 12.5 mg/kg/injection, schedule: Q01DX009 (ip), vehicle: saline + Tween-80 + alcohol); 101 % of control and 109 % of control (endpoint: median survival time, dose: 25.0 mg/kg/injection, schedule: Q01DX009 (ip), vehicle: saline + Tween-80 + alcohol).

`O=C(Nc1nccs1)C(F)(F)F`: the T/C runs as follows: (endpoint: median survival time, dose: 50.0 mg/kg/injection, schedule: Q01DX009 (ip), vehicle: saline) 100 % of control; (endpoint: median survival time, dose: 100.0 mg/kg/injection, schedule: Q01DX009 (ip), vehicle: saline) 108 % of control; (endpoint: median survival time, dose: 200.0 mg/kg/injection, schedule: Q01DX009 (ip), vehicle: saline) 108 % of control; (endpoint: median survival time, dose: 400.0 mg/kg/injection, schedule: Q01DX009 (ip), vehicle: saline) 109 % of control.

With `Cc1cccc(C)c1N=C(NO)c1ccccc1`, the T/C reads like this: (endpoint: mean survival time, dose: 100.0 mg/kg/injection, schedule: Q01DX001 (ip), vehicle: saline) 102 % of control; under setting [4], 106 % of control; (endpoint: mean survival time, dose: 200.0 mg/kg/injection, schedule: Q01DX001 (ip), vehicle: saline) 100 % of control; under setting [5], 112 % of control; (endpoint: mean survival time, dose: 400.0 mg/kg/injection, schedule: Q01DX001 (ip), vehicle: saline) 90 % of control; (endpoint: mean survival time, dose: 400.0 mg/kg/injection, schedule: Q04DX003 (ip), vehicle: saline) 100 % of control.

As for `CN(C)C(=S)Nc1ccc(Cl)cc1`, the T/C under setting [1] is 98 % of control, the T/C under setting [2] is 98 % of control and the T/C under setting [13] is 100 % of control.

For the origin of these results see PubChem BioAssay AID256 (DTP/NCI, 2004).
